Patent US8178506B2, “Oligomeric compounds and compositions for use in modulation of small non-coding RNAs” (Regulus Therapeutics Inc., priority 2003, dated 2012)
In the oligonucleotide strings, read from the 5' end, every base follows the letter of its sugar. An asterisk marks phosphorothioate; unmarked linkages are phosphodiester. Other units and linkages are bracketed, terminal groups are in braces. A string of capitals states the bases alone. e = 2'-O-(2-methoxyethyl) (MOE); [5mC] = 5-methylcytosine; d = 2'-deoxy (DNA)

Key:
[1] = system: differentiated adipocytes; test: Hallmark genes and triglycerides in differentiated adipocytes; type: cell-based, human; conditions: Table 28; differentiated adipocytes transfected day nine post-differentiation; 250 nM oligonucleotide
Source text: The effect of the oligomeric compounds of the present invention targeting miRNAs on the expression of markers of cellular differentiation was examined in differentiated adipocytes.
As previously described, the HSL, aP2, Glut4, and PPARγ genes play important rolls in the uptake of glucose and the metabolism and utilization of fats. Also as previously described, an increase in triglyceride content is another well-established marker for adipocyte differentiation. Human white preadipocytes (Zen-Bio Inc., Research Triangle Park, N.C.) were grown in preadipocyte media (ZenBio Inc.). After the cells reached confluence (approximately three days), they were exposed to differentiation media (Zen-Bio, Inc.) containing a PPAR-γ agonist, IBMX, dexamethasone, and insulin for three days. Cells were then fed Adipocyte Medium (Zen-Bio, Inc.), which was replaced at 2 to 3 day intervals. One day before transfection, 96-well plates were seeded with 3000 cells/well. Cells were then transfected on day nine post-differentiation, according to standard published procedures with 250 nM oligonucleotide in LIPOFECTIN™ (Invitrogen Corporation, Carlsbad, Calif.) (Monia et al., J. Biol. Chem. 1993 268(19):14514-22). Oligomeric compounds were tested in triplicate on each 96-well plate, and the effect of TNF-α, known to inhibit adipocyte differentiation, was also measured in triplicate. Oligomeric compound treatments and transfectant-only negative controls may be measured up to six times per plate. On day twelve post-differentiation, cells were washed and lysed at room temperature, and the expression of the four hallmark genes, HSL, aP2, Glut4, and PPARγ, as well as triglyceride (TG) accumulation were measured in adipocytes transfected with the uniform 2′-MOE phosphorothioate (PS) previously described in Example 13 as well as the chimeric gapmer oligomeric compounds targeting the mir-143 miRNA and the mir-143 pri-miRNA described in Example 16. On day twelve post-differentiation, cells were lysed in a guanadinium-containing buffer and total RNA was harvested. The amount of total RNA in each sample was determined using a Ribogreen Assay (Molecular Probes, Eugene, Oreg.). Real-time PCR was performed on the total RNA using primer/probe sets for the adipocyte differentiation hallmark genes Glut4, HSL, aP2, and PPARγ. Triglyceride levels as well as mRNA levels for each of the four adipocyte differentiation hallmark genes are expressed relative to control levels (control=treatment with ISIS-29848 (SEQ ID NO: 737)).

IL-12 mRNA = IL-12 mRNA in LPS-activated primary murine macrophages; type: cell-based, mouse; conditions: for IL-12 mRNA expression, −IFN % UTC: 300 nM oligomeric compound and LPS, no IFN-gamma pretreatment, single experiment; for IL-12 mRNA expression, −IFN % UTC / IL-12 mRNA expression, +IFN % UTC: normalized to LPS-treated cells without oligomeric compound; for IL-12 mRNA expression, +IFN % UTC: 300 nM oligomeric compound, stimulation with IFN-gamma and LPS, average of 2 experiments; for IL-12 mRNA expression, % UTC: LPS, average of 3 treatments
preadipocytes = test: Caspase assay in preadipocytes; type: cell-based, human; conditions: for Fold Increase over UTC (caspase activity): untreated control set equal to 1.0
Source text: The effect of oligomeric compounds of the present invention targeting miRNAs was examined in preadipocytes (Zen-Bio, Inc., Research Triangle Park, N.C.) using the fluorometric caspase assay previously described in Example 11.

327876 (antisense eA*eA*e[5mC]*eA*e[5mC]*eT*eG*eA*eT*eT*eT*e[5mC]*eA*eA*eA*eT*eG*eG*eT*eG*e[5mC]*eT*eA) [compound 327876]
Glut4 [1]: 3.53
HSL [1]: 0.81
PPAR gamma [1]: 1.28
TG [1]: 1.16
aP2 [1]: 0.67
IL-12 mRNA expression, −IFN % UTC (IL-12 mRNA): 194 % UTC
IL-12 mRNA expression, +IFN % UTC (IL-12 mRNA): 9 % UTC

327888 (antisense eA*eA*eT*eG*e[5mC]*e[5mC]*e[5mC]*e[5mC]*eT*eA*eA*eA*eA*eA*eT*e[5mC]*e[5mC]*eT*eT*eA*eT) [compound 327888]
Fold Increase over UTC (caspase activity) (preadipocytes): 1.1 fold over UTC
Glut4 [1]: 0.56
HSL [1]: 0.84
PPAR gamma [1]: 1.69
TG [1]: 1.13
aP2 [1]: 0.73

327889 (antisense eG*eT*eG*eG*eT*eA*eA*eT*e[5mC]*e[5mC]*e[5mC]*eT*eG*eG*e[5mC]*eA*eA*eT*eG*eT*eG*eA*eT) [compound 327889]
Fold Increase over UTC (caspase activity) (preadipocytes): 1.1 fold over UTC
Glut4 [1]: 0.99
HSL [1]: 0.77
PPAR gamma [1]: 1.63
TG [1]: 1.09
aP2 [1]: 1.12
IL-12 mRNA expression, −IFN % UTC (IL-12 mRNA): 153 % UTC
IL-12 mRNA expression, +IFN % UTC (IL-12 mRNA): 10 % UTC

327890 (antisense eA*eG*e[5mC]*eA*e[5mC]*eA*eA*eA*e[5mC]*eT*eA*e[5mC]*eT*eA*e[5mC]*e[5mC]*eT*e[5mC]*eA) [compound 327890]
Fold Increase over UTC (caspase activity) (preadipocytes): 1.3 fold over UTC
Glut4 [1]: 0.37
HSL [1]: 0.42
PPAR gamma [1]: 1.05
TG [1]: 1.13
aP2 [1]: 0.35
IL-12 mRNA expression, −IFN % UTC (IL-12 mRNA): 183 % UTC
IL-12 mRNA expression, +IFN % UTC (IL-12 mRNA): 94 % UTC

327893 (antisense eA*eA*e[5mC]*e[5mC]*eA*e[5mC]*eA*e[5mC]*eA*eA*e[5mC]*e[5mC]*eT*eA*e[5mC]*eT*eA*e[5mC]*e[5mC]*eT*e[5mC]*eA) [compound 327893]
Fold Increase over UTC (caspase activity) (preadipocytes): 1.3 fold over UTC
IL-12 mRNA expression, −IFN % UTC (IL-12 mRNA): 117 % UTC
IL-12 mRNA expression, +IFN % UTC (IL-12 mRNA): 52 % UTC

327901 (antisense eT*eG*eA*eG*e[5mC]*eT*eA*e[5mC]*eA*eG*eT*eG*e[5mC]*eT*eT*e[5mC]*eA*eT*e[5mC]*eT*e[5mC]*eA) [compound 327901]
Fold Increase over UTC (caspase activity) (preadipocytes): 2.0 fold over UTC
Glut4 [1]: 2.20
HSL [1]: 1.47
PPAR gamma [1]: 1.34
TG [1]: 1.12
aP2 [1]: 1.28
IL-12 mRNA expression, −IFN % UTC (IL-12 mRNA): 225 % UTC
IL-12 mRNA expression, +IFN % UTC (IL-12 mRNA): 9 % UTC

327903 (antisense eA*eA*e[5mC]*eT*eA*eT*eA*e[5mC]*eA*eA*e[5mC]*e[5mC]*eT*eA*e[5mC]*eT*eA*e[5mC]*e[5mC]*eT*e[5mC]*eA) [compound 327903]
Fold Increase over UTC (caspase activity) (preadipocytes): 1.6 fold over UTC
Glut4 [1]: 0.36
HSL [1]: 0.53
PPAR gamma [1]: 0.91
TG [1]: 1.12
aP2 [1]: 0.56
IL-12 mRNA expression, −IFN % UTC (IL-12 mRNA): 200 % UTC
IL-12 mRNA expression, +IFN % UTC (IL-12 mRNA): 23 % UTC

327905 (antisense e[5mC]*eA*eG*eA*e[5mC]*eT*e[5mC]*e[5mC]*eG*eG*eT*eG*eG*eA*eA*eT*eG*eA*eA*eG*eG*eA) [compound 327905]
Fold Increase over UTC (caspase activity) (preadipocytes): 1.5 fold over UTC
Glut4 [1]: 0.58
HSL [1]: 0.65
PPAR gamma [1]: 1.31
TG [1]: 1.18
aP2 [1]: 0.85

327913 (antisense eA*eA*e[5mC]*e[5mC]*eG*eA*eT*eT*eT*e[5mC]*eA*eA*eA*eT*eG*eG*eT*eG*e[5mC]*eT*eA*eG) [compound 327913]
Glut4 [1]: 1.52
HSL [1]: 1.09
PPAR gamma [1]: 1.29
TG [1]: 1.12
aP2 [1]: 1.05
IL-12 mRNA expression, −IFN % UTC (IL-12 mRNA): 276 % UTC
IL-12 mRNA expression, +IFN % UTC (IL-12 mRNA): 73 % UTC

327919 (antisense eG*eA*eA*eA*e[5mC]*e[5mC]*e[5mC]*eA*eG*e[5mC]*eA*eG*eA*e[5mC]*eA*eA*eT*eG*eT*eA*eG*e[5mC]*eT) [compound 327919]
Fold Increase over UTC (caspase activity) (preadipocytes): 1.3 fold over UTC
Glut4 [1]: 1.82
HSL [1]: 0.83
PPAR gamma [1]: 1.80
TG [1]: 1.15
aP2 [1]: 1.20
IL-12 mRNA expression, −IFN % UTC (IL-12 mRNA): 179 % UTC
IL-12 mRNA expression, +IFN % UTC (IL-12 mRNA): 37 % UTC

327922 (antisense eT*e[5mC]*eA*eG*eT*eT*eT*eT*eG*e[5mC]*eA*eT*eG*eG*eA*eT*eT*eT*eG*e[5mC]*eA*e[5mC]*eA) [compound 327922]
Fold Increase over UTC (caspase activity) (preadipocytes): 1.0 fold over UTC
Glut4 [1]: 0.61
HSL [1]: 1.01
PPAR gamma [1]: 0.99
TG [1]: 1.48
aP2 [1]: 0.91

327925 (antisense eT*eA*eG*e[5mC]*eT*eG*eG*eT*eT*eG*eA*eA*eG*eG*eG*eG*eA*e[5mC]*e[5mC]*eA*eA) [compound 327925]
Fold Increase over UTC (caspase activity) (preadipocytes): 2.0 fold over UTC
Glut4 [1]: 0.74
HSL [1]: 1.20
PPAR gamma [1]: 1.30
TG [1]: 1.33
aP2 [1]: 0.78
IL-12 mRNA expression, −IFN % UTC (IL-12 mRNA): 302 % UTC
IL-12 mRNA expression, +IFN % UTC (IL-12 mRNA): 60 % UTC

327931 (antisense eA*eA*e[5mC]*e[5mC]*eA*eT*eA*e[5mC]*eA*eA*e[5mC]*e[5mC]*eT*eA*e[5mC]*eT*eA*e[5mC]*e[5mC]*eT*e[5mC]*eA) [compound 327931]
Fold Increase over UTC (caspase activity) (preadipocytes): 1.5 fold over UTC
IL-12 mRNA expression, −IFN % UTC (IL-12 mRNA): 105 % UTC
IL-12 mRNA expression, +IFN % UTC (IL-12 mRNA): 48 % UTC

327934 (antisense eG*eG*eT*eA*e[5mC]*eA*eA*eT*e[5mC]*eA*eA*e[5mC]*eG*eG*eT*e[5mC]*eG*eA*eT*eG*eG*eT) [compound 327934]
Fold Increase over UTC (caspase activity) (preadipocytes): 2.0 fold over UTC
Glut4 [1]: 1.52
HSL [1]: 1.97
PPAR gamma [1]: 1.54
TG [1]: 1.43
aP2 [1]: 1.50

327941 (antisense eA*eA*e[5mC]*e[5mC]*e[5mC]*eA*e[5mC]*e[5mC]*eG*eA*e[5mC]*eA*eG*e[5mC]*eA*eA*eT*eG*eA*eA*eT*eG*eT*eT) [compound 327941]
Fold Increase over UTC (caspase activity) (preadipocytes): 1.3 fold over UTC
Glut4 [1]: 0.90
HSL [1]: 1.17
PPAR gamma [1]: 1.66
TG [1]: 1.33
aP2 [1]: 0.90
IL-12 mRNA expression, % UTC (IL-12 mRNA; 75 nM, +IFN): 4 % UTC
IL-12 mRNA expression, % UTC (IL-12 mRNA; 75 nM, −IFN): 49 % UTC
IL-12 mRNA expression, % UTC (IL-12 mRNA; 150 nM, +IFN): 2 % UTC
IL-12 mRNA expression, % UTC (IL-12 mRNA; 150 nM, −IFN): 45 % UTC
IL-12 mRNA expression, −IFN % UTC (IL-12 mRNA): 89 % UTC
IL-12 mRNA expression, +IFN % UTC (IL-12 mRNA): 34 % UTC
IL-12 mRNA expression, % UTC (IL-12 mRNA; 300 nM, +IFN): 3 % UTC
IL-12 mRNA expression, % UTC (IL-12 mRNA; 300 nM, −IFN): 34 % UTC
IL-12 mRNA expression, % UTC (IL-12 mRNA; 600 nM, +IFN): 3 % UTC
IL-12 mRNA expression, % UTC (IL-12 mRNA; 600 nM, −IFN): 41 % UTC

327967 (antisense eA*e[5mC]*eT*eG*eT*eA*e[5mC]*eA*eA*eA*e[5mC]*eT*eA*e[5mC]*eT*eA*e[5mC]*e[5mC]*eT*e[5mC]*eA) [compound 327967]
Fold Increase over UTC (caspase activity) (preadipocytes): 1.5 fold over UTC
IL-12 mRNA expression, −IFN % UTC (IL-12 mRNA): 203 % UTC
IL-12 mRNA expression, +IFN % UTC (IL-12 mRNA): 43 % UTC

340927 (antisense eT*eG*eA*eG*e[5mC]*dT*dA*d[5mC]*dA*dG*dT*dG*d[5mC]*dT*dT*e[5mC]*eA*eT*e[5mC]*eT*e[5mC]*eA) [compound 340927]
Glut4 [1]: 0.96
HSL [1]: 0.64
PPAR gamma [1]: 1.21
TG [1]: 1.61
aP2 [1]: 0.71

TGAGCTACAGTGCTTCATCTCA [ISIS 327901] (chemistry not given here) [uniform 2′-MOE PS; targets mir-143]
caspase activity (preadipocytes): does not result in a significant increase in caspase activity
